Measurements published in patent publication US20260256771A1, “GALUNISERTIB FOR USE IN THE TREATMENT OF ANDROGENIC ALOPECIA” (SAÚDE VIÁVEL, S.A., priority 2022, published 2026).

How the values were obtained:
TGFβ2 = experiment: qRT-PCR of TGFβ transcripts in dermal papilla isolated from HFOCs; type: cell-based, human; conditions: Galunisertib-treated HFOCs (10 μM, 48 h)
Description: Concentration and purity are ascertained in a NanoDrop spectrophotometer.
In addition, only anagen hair follicles are used.
(§1) Hair growth percentages is normalized to day 0.

TGFβ2 protein = experiment: Immunohistochemistry of cryo-sectioned HFOCs: TGFβ2; type: cell-based, human
Description: as §1
FIG. 4. Galunisertib inhibits TGFβ2 paracrine signaling in the bulb epithelial compartment. a) Representative Immunohistochemistry (IHC) images of tissue sections of HFOCs untreated and treated with Galunisertib as indicated and stained for TGFβ2 and p-SMAD2. In the upper left frame is exemplified how the dermal papilla (DP) and adjacent bulb epithelial compartment (HB) regions were delineated for quantitative analyses shown in b-e. Nuclei were counterstained with DAPI. Scale bar, 100 μm. b-e) Adjusted intensity levels of TGFβ2 and p-SMAD2 per DP and HB areas as measured in tissue sections from untreated and Galunisertib-treated HFOCs. Values are mean±SD of HFOCs established from n=4 donors (n>9 HFs per condition). ns p≥0.05, *p≤0.05 by unpaired t-test.
(§2) For immunohistochemistry, 2-day HFOCs are used for immunohistochemistry analysis. Briefly, HFs were embedded on a drop of OCT and stored at −80° C. 8 μm cryosections are air-dried and fixed in 4% PFA (for TGFβ2, cleavage Caspase 3, p-SMAD2 and KI67 immunostainings) or cold acetone (for LEF1 and β-catenin immunostaining). Following 2×5 min rinse with PBS, microsections are permeabilized 2× for 10 min with PBS+0.3% Triton X 100 (PBS-T) and then blocked with PBS+10% fetal bovine serum (FBS) for 1 hour at room temperature. […]

[1] = test system: Ki67 proliferation marker; experiment: Immunohistochemistry of cryo-sectioned HFOCs: Ki67; type: cell-based, human; conditions: HFOCs treated with Galunisertib for 48 h vs untreated
Description: as §1
(§3) FIG. 5. Galunisertib improves cell proliferation and the WNT signaling in the bulb epithelial compartment. a) Representative IHC images of tissue sections of HFOCs untreated and treated with Galunisertib and stained for KI67 and cleaved caspase 3. Nuclei were counterstained with DAPI. Scale bar, 100 μm. b,c) Adjusted intensity levels of KI67 and cleaved caspase 3 per DP and HB (bulb epithelium) areas, respectively, as measured in tissue sections from HFOCs with and without Galunisertib. All values are mean±SD of HFOCs established from n=8 donors (n>16 HFs per condition). ns p≥0.05, *p≤0.05 by unpaired t-test.
as §2, with “temperature. Antibodies are diluted in PBS-T+1% FBS and incubation done overnight at 4° C.” for “temperature.”

cleaved Caspase 3 = experiment: Immunohistochemistry of cryo-sectioned HFOCs: cleaved Caspase 3; type: cell-based, human; conditions: mainly detected in the DP; HFOCs treated with Galunisertib for 48 h vs untreated
Description: as §1, §3
as §2, with “temperature. Antibodies are diluted in PBS-T+1% FBS and incubation done overnight at 4° C.” for “temperature.”

LEF1 = experiment: Immunohistochemistry of cryo-sectioned HFOCs: LEF1; type: cell-based, human; conditions: Galunisertib 48 h vs untreated
Description: as §1
FIG. 6. Galunisertib improves the WNT signaling in the bulb epithelial compartment. a) Representative IHC images of tissue sections of HFOCs with and without Galunisertib and stained for LEF1 (red) and β-catenin (green). Nuclei were counterstained with DAPI (blue). Scale bar, 100 μm. b,e) Adjusted intensity levels of LEF1 and β-catenin per DP and HB (bulb epithelium) areas, as measured in tissue sections from HFOCs with and without Galunisertib. All values are mean±SD of HFOCs established from n=4 donors (n>8 HFs per condition). ns p≥0.05, *p≤0.05 by unpaired t-test.
as §2, with “temperature. Antibodies are diluted in PBS-T+1% FBS and incubation done overnight at 4° C.” for “temperature.”

[2] = test system: C57BL/6 depilated male mice; experiment: Hair growth in depilated mice under topical treatment (photographs, trichoscopy); type: in vivo, mouse; conditions: for hair growth in magnified photographs of depilated areas: day 9, vs vehicle control
Description: FIG. 7. Galunisertib induces hair growth in C57BL/6J mice. a) Mouse treatment scheme. 7-week-old C57BL/6J mice were depilated (day −2) and 2 days later (day 0) started being treated with vehicle (70% ethanol), galunisertib (10 μM and 100 μM) or 3% minoxidil for 21 non-continuous days. b) Photographs of C57BL/6J mice treated with vehicle (control), 10 μM and 100 μM galunisertib or 3% minoxidil at days 0, 5, 9 and 14. c) Magnified photographs of the depilation site of C57BL/6J mice treated with vehicle (Ctr), galunisertib (10 and 100 μM) or minoxidil at days 7 and 9. d) Trichoscopy images of depilated regions at days 8 and 10. N≥3 animals were used per timepoint per condition for image and skin collection; e) Mass spectrometry analysis of skin biopsies retrieved at day 14 from animals treated with 10 μM and 100 μM galunisertib. Values are mean±SD of n=3 animals per condition.
Mice are six-week-old male C57BL/6J mice purchased from the Charles River Laboratories. The animals are housed and allowed to adapt to the laboratory environment for one week before experiments start. Animals are maintained under a 12 h light/dark cycle and fed with regular rodent's chow and tap water ad libitum, at the i3S animal facility.
For depilation and treatments in order to synchronize hair growth cycle in mice, anagen is induced by depilation. Seven-week-old male C57BL/6J mice are anesthetized using 3% isoflurane and their back is shaved using a hair shaver. Hair is then further depilated using cold wax bands (Veet Minima). After the depilation, the excess of wax is removed with mineral oil, and a skin protector spray, Douxo Calm Sérum, is applied, followed by Cavilon, a barrier film spray. To allow for skin to fully recover, topical treatments started two days later. During the procedures mice are under volatile anesthesia (3% isoflurane) and are kept warmed. Mice are photographed with a camara or a trichoscope (Dino-Lite), before topical application of galunisertib (10 μM and 100 μM), minoxidil (3%) or vehicle (70% ethanol). Topical applications are performed using a syringe in order to cover the depilated area only. Hair growth is followed for 21 days, although telogen is apparent at day 18 post-treatment.

[3] = Mass spectrometry of skin biopsies; type: in vivo, mouse; conditions: skin retrieved at day 14, N=3, mean±SD
Description: For mass spectrometry of skin biopsies, dorsal skin of mice under 10 μM and 100 μM galunisertib topical treatment for 14 days is collected after anesthesia (Ketamine 150 mg/kg+Medetomidine 2 mg/kg) and perfusion with PBS. Skin samples are snap frozen and stored at −80° C. until being sent for mass spec analysis by Cyprotex. Skin samples from N=3 animals per condition are homogenized 1:4 in mouse plasma, then quantified against a mouse plasma calibration curve. Analytical runs meeting calibration standard and QC acceptance criteria.

fluorescence intensity levels of cleaved Caspase 3 (cleaved Caspase 3): do not show significant changes
concentration of compound in skin biopsies ([3]; topical 10 μM galunisertib): 1.6 ± 0.7 µM
concentration of compound in skin biopsies ([3]; topical 100 μM galunisertib): 9.6 ± 0.6 µM
Structure (SMILES): Cc1cccc(-c2nn3c(c2-c2ccnc4ccc(C(N)=O)cc24)CCC3)n1 [Galunisertib]
TGFβ2 gene expression in the DP (TGFβ2): inhibit TGFβ2 gene expression
TGFβ2 fluorescence intensity levels at the bulb epithelial compartment (TGFβ2 protein; bulb epithelial compartment surrounding the DP, Galunisertib 48 h vs untreated): decreased levels
DP levels of TGFβ2 (fluorescence intensity) (TGFβ2 protein; dermal papilla, HFOCs with or without Galunisertib for 48 h): isn't any significant change
number of bulb epithelial cells staining positive for Ki67 [1]: increased number
Ki67 fluorescence intensity levels ([1]; bulb epithelium): higher
LEF1 levels in the bulb epithelium (LEF1; bulb epithelium): increased levels
LEF1 levels in the DP (LEF1; dermal papilla): not significantly upregulated
adverse side effects ([2]; mice under topical galunisertib (10 and 100 μM)): no apparent adverse side effects
hair growth in magnified photographs of depilated areas ([2]; topical 10 μM galunisertib): marked improvement of hair growth
hair growth in magnified photographs of depilated areas ([2]; topical 100 μM galunisertib, ranked after 10 μM galunisertib): marked improvement of hair growth
hair density by trichoscopy examination of depilated regions ([2]; topical galunisertib, in particular 10 μM, days 8 and 10): increased hair density
macroscopic assessment of hair growth: darkness of depilated area (hair density) ([2]; topical, galunisertib 10 and 100 μM, minoxidil 3%, vs. control mice, day 5 to day 14): consistently darker
